Legend:
[1] = test system: (CTA)12/(TAG)12 36-mer DNA duplex; assay: In vitro DNA methylation assay of DIM2 (WT or mutant); format: biochemical; set-up: DNA methylation activity: unit not given here; details: 30 min
HP1 = assay: Size-exclusion chromatography of DIM2-HP1 complex; format: binding, Neurospora Crassa; details: 1.0 µM DIM2 and/or 2.5 µM HP1, Superdex 200 increase 10/300 GL, pH 7.5
Procedure: For size-exclusion chromatography analysis, 400 µL of the sample mixture containing 1.0 µM DIM2 and/or 2.5 µM HP1 was loaded onto Superdex 200 increase 10/300 GL column (GE Healthcare) and eluted at a flow rate of 0.5 mL/min, in the buffer containing 20 mM Tris-HCl (pH 7.5), 100 mM NaCl, 5% glycerol, and 5 mM DTT. The proteins in each fraction were then visualized by SDS-PAGE.

DIM2 = assay: In vitro DNA methylation assay: effect of HP1 and H3 peptides on DIM2 activity; format: biochemical, Neurospora Crassa; details: 36-mer DNA duplex, 1.0 µM peptide and/or 2 µM HP1
Procedure: In vitro DNA methylation assay was performed in a 20-µL reaction mixture. For the substrate specificity assay, the following DNA duplexes were used as substrates: CG DNA (Upper strand: 5’-[…]-3’), hemimethylated CG DNA (Upper strand: 5’-TAAATTTXGATTAATAAT-3’, X = 5-methylcytosine; Lower strand: 5’-[…] -3’), CHG DNA (Upper strand: 5’-[…]-3’), and CHH DNA (Upper strand: 5’-[…]-3’). The reaction mixture contains 0.25 µM DIM2, 1.0 µM DNA duplex, 1.0 µM synthesized H3K9me3 peptide (residues 1-24 of H3 plus a C-terminal tryptophan), 0.5 µM HP1, and 0.56 µM S-adenosyl-L-[methyl-^3H] methionine with a specific activity of 18 Ci/mmol (PerkinElmer) in buffer containing 50 mM Tris-HCl (pH 8.0), 100 mM NaCl, 0.05% β-mercaptoethanol, 5% glycerol, and 200 µg/mL BSA. For the rest of the DNA methylation assay, each reaction mixture contains 1.0 µM DIM2, […] methionine with a specific activity of 18 Ci/mmol (PerkinElmer) in buffer containing 50 mM Tris-HCl (pH 8.0), 100 mM NaCl, 0.05% β-mercaptoethanol, 5% glycerol, and 200 µg/mL BSA. In addition, 1.0 µM synthesized H3K9me3 or H3K9me0 peptide (residues 1-24 of H3 plus a C-terminal tryptophan) and/or 2 µM HP1 protein was included to evaluate the effect of H3 and HP1 regulation. The reaction mixture was incubated at 30 °C for 30 min, unless indicated otherwise, before being quenched by the addition of 5 µL of 10 mM cold SAM. After the reaction, 8 μL of the mixtures was loaded onto Hybond N nylon membrane (GE Healthcare), which was left to dry out at room temperature. The membrane was subsequently washed with 0.2 M ammonium bicarbonate (pH 8.2) two times (20 min per time), deionized water (20 min) once, and 95% ethanol (5 min) once. After air dried, the membrane carrying each sample was transferred into a vial containing 3 mL scintillation buffer (Fisher). The tritium scintillation was measured and recorded by a Beckman LS6500 counter. Each the reaction was repeated three times.

DIM2, W261A = assay: ITC binding of H3K9me3 peptide, DIM2 W261A; set-up: species or system Neurospora Crassa
Procedure: (§1) ITC measurements were performed using a MicroCal iTC200 instrument (GE Healthcare). To measure the bindings between proteins and H3K9me3 peptide, 0.04–0.05 mM DIM2, WT or mutant (W261A, W581A, or W261A/W581A), DIM2 RFTS domain, or HP1, WT or mutant (W98A), was titrated with 0.5 mM histone peptide at 7 °C. Prior to the titration, both peptide and protein samples were subjected to overnight dialysis against buffer containing 20 mM Tris-HCl (pH 7.5), 100 mM NaCl, and 1 mM β-mercaptoethanol. Buffer to buffer titration was performed to ensure no abnormality of baseline. Analyses of all data were performed with MicroCal Origin software, fitted with single-site binding mode.

DIM2, W581A = assay: ITC binding of H3K9me3 peptide, DIM2 W581A; set-up: species or system Neurospora Crassa
Procedure: as §1

DIM2, W261A/W581A = assay: ITC binding of H3K9me3 peptide, DIM2 W261A/W581A; set-up: species or system Neurospora Crassa; details: 7 °C, pH 7.5, NDB, no detectable binding
Procedure: as §1

DIM2WT: Neurospora Crassa DIM2 (NCBI accession no. XP_959891.1) (residues 1-1242)
DNA methylation activity of DIM2 (in words) ([1]; 1.0 µM DIM2, 30 °C, pH 8.0): no detectable activity | DNA methylation activity ([1]; Fig. 1b, 1.0 µM DIM2, 1.0 µM DNA duplex, 0.56 µM [methyl-3H]SAM, 1.0 µM H3 peptide and/or 2 µM HP1, pH 8.0, 30 °C, tritium scintillation, replicate 1): -0.021 | DNA methylation activity ([1]; Fig. 1b, 1.0 µM DIM2, 1.0 µM DNA duplex, 0.56 µM [methyl-3H]SAM, 1.0 µM H3 peptide and/or 2 µM HP1, pH 8.0, 30 °C, tritium scintillation, replicate 2): -0.01 | DNA methylation activity ([1]; Fig. 1b, 1.0 µM DIM2, 1.0 µM DNA duplex, 0.56 µM [methyl-3H]SAM, 1.0 µM H3 peptide and/or 2 µM HP1, pH 8.0, 30 °C, tritium scintillation, replicate 3): -0.04 | DNA methylation activity ([1]; Fig. 2g, in the presence of HP1 (2 µM) and H3_1-24K9me3 peptide (1.0 µM), 1.0 µM DIM2, 30 °C, pH 8.0, replicate 1): 20.908 | DNA methylation activity ([1]; Fig. 2g, in the presence of HP1 (2 µM) and H3_1-24K9me3 peptide (1.0 µM), 1.0 µM DIM2, 30 °C, pH 8.0, replicate 2): 20.644 | DNA methylation activity ([1]; Fig. 2g, in the presence of HP1 (2 µM) and H3_1-24K9me3 peptide (1.0 µM), 1.0 µM DIM2, 30 °C, pH 8.0, replicate 3): 18.328 | DNA methylation activity ([1]; Fig. 5f, DNA binding-associated mutants, 1.0 µM DIM2, 1.0 µM DNA duplex, 30 °C, pH 8.0, replicate 1): 14.337 | DNA methylation activity ([1]; Fig. 5f, DNA binding-associated mutants, 1.0 µM DIM2, 1.0 µM DNA duplex, 30 °C, pH 8.0, replicate 2): 13.213 | DNA methylation activity ([1]; Fig. 5f, DNA binding-associated mutants, 1.0 µM DIM2, 1.0 µM DNA duplex, 30 °C, pH 8.0, replicate 3): 13.147 | DNA methylation activity ([1]; Fig. 3h, in the presence of HP1 (2 µM) and H3_1-24K9me3 peptide (1.0 µM), 1.0 µM DIM2, 30 °C, pH 8.0, replicate 1): 22.922 | DNA methylation activity ([1]; Fig. 3h, in the presence of HP1 (2 µM) and H3_1-24K9me3 peptide (1.0 µM), 1.0 µM DIM2, 30 °C, pH 8.0, replicate 2): 23.125 | DNA methylation activity ([1]; Fig. 3h, in the presence of HP1 (2 µM) and H3_1-24K9me3 peptide (1.0 µM), 1.0 µM DIM2, 30 °C, pH 8.0, replicate 3): 22.99 | DNA methylation activity ([1]; Fig. 6d, H3_1-24K9me3 binding-associated mutants, 1.0 µM DIM2, 1.0 µM DNA duplex, 30 °C, pH 8.0, replicate 1): 19.42 | DNA methylation activity ([1]; Fig. 6d, H3_1-24K9me3 binding-associated mutants, 1.0 µM DIM2, 1.0 µM DNA duplex, 30 °C, pH 8.0, replicate 2): 16.017 | DNA methylation activity ([1]; Fig. 6d, H3_1-24K9me3 binding-associated mutants, 1.0 µM DIM2, 1.0 µM DNA duplex, 30 °C, pH 8.0, replicate 3): 17.874 | DIM2-HP1 complex formation (in words) (HP1): co-migration

H31-24K9me3: synthesized H3K9me3 peptide (residues 1-24 of H3 plus a C-terminal tryptophan)
effect on DNA methylation activity of DIM2 (in words) (DIM2): failed to activate DIM2 appreciably | enhanced binding affinity vs WT DIM2 (DIM2, W261A; W261A vs WT): ~ 2.3 fold | BAH1-H3K9me3 binding stronger than RFTS-H3K9me3 binding by (DIM2, W261A; in the absence of DNA): ~ 24 fold | reduction of peptide-binding affinity vs WT DIM2 (DIM2, W581A): ~10 fold | Kd (DIM2, W261A/W581A): NDB | Kd (DIM2, W261A/W581A; listed as H3K9me3 peptide): complete abolishment
